This test addresses USP30 (Homo sapiens (Human), UniProt Q70CQ3). The test is described as follows: USP30 biochemical IC50 assay (fluorescence polarisation). The settings on record: enzyme and compound incubated 30 min at room temp; TAMRA labelled peptide-ubiquitin substrate 50 nM; read after 2 hr incubation; read-out: IC50 range. How it is done:
USP30 Biochemical IC50 Assay
Dilution plates were prepared at 21 times the final concentration ([…] for a final concentration of 100 μM) in 50% DMSO in a 96-well polypropylene V-bottom plate (Greiner #651201). A typical 8-point dilution series to be 100, 30, 10, 3, 1, 0.3, 0.1, […].
Reactions were performed in duplicate in black 384 well plates (small volume, Greiner 784076) in a final reaction volume of 21 μl. Either 1 μl of 50% DMSO or diluted compound was added to the plate. USP30 was diluted in reaction buffer (40 mM Tris, pH 7.5, 0.005% Tween 20, 0.5 mg/ml BSA, 5 mM beta-mercaptoethanol) to the equivalent of 0.05 µl/well and 10 μl of diluted USP30 was added to the compound. Enzyme and compound were incubated for 30 min at room temp. Reactions were initiated by the addition of 50 nM of TAMRA labelled peptide linked to ubiquitin via an iso-peptide bond as fluorescence polarisation substrate. Reactions were read immediately after addition of substrate and following a 2 hr incubation at room temperature. Readings were performed on a Pherastar Plus (BMG Labtech). λ Excitation 540 nm; λ Emission 590 nm.
In general terms: Fluorescence polarisation rises when a labelled molecule tumbles more slowly, as on binding a larger partner.
Sequence of USP30 (Q70CQ3 57-517): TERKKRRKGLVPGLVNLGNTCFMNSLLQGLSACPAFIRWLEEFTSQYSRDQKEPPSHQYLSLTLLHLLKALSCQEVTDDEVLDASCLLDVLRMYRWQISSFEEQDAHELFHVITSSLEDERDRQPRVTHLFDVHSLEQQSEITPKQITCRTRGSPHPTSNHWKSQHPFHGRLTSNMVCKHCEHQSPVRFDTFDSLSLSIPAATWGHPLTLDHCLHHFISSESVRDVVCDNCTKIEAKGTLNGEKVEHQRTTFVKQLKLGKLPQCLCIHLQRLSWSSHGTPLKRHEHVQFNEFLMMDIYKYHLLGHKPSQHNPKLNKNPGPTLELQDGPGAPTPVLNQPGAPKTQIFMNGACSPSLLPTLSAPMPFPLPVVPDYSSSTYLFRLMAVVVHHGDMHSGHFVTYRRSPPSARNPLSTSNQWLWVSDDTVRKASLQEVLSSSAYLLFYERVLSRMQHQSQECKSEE
As to `CN(C(=O)[C@H]1CN(C#N)C[C@@H]1CO)c1ncc(-c2ccccc2)s1` (relative stereo) [Example 34, (trans)-1-Cyano-4-(hydroxymethyl)-N-methyl-N-(5-phenylthiazol-2-yl)pyrrolidine-3-carboxamide], the IC50 lay in the range of 100 to 1000 nM.

`N#CN1CCC(F)(C(=O)N2CCc3cc(-c4cccc(NS(=O)(=O)C5CC5)c4)ccc32)C1` (stereo not shown) [Example 42, N-(3-(1-(1-Cyano-3-fluoropyrrolidine-3-carbonyl)indolin-5-yl)phenyl)cyclopropanesulfonamide]: the IC50 was in the range of 100 to 1000 nM.

As for `N#CN1CC[C@@H](C(=O)N2CCc3ccc(-c4ccccc4)cc32)C1` [Example 11, (R)-3-(6-Phenylindoline-1-carbonyl)pyrrolidine-1-carbonitrile], the IC50 fell in the range of 1000 to 10000 nM.

For `CN1CCN(c2ccc(-c3ccc4c(c3)CCN4C(=O)C3(F)CCN(C#N)C3)cc2)CC1` (stereo not shown) [Example 37, 3-Fluoro-3-(5-(4-(4-methylpiperazin-1-yl)phenyl)indoline-1-carbonyl)pyrrolidine-1-carbonitrile], the IC50 is 100 to 1000 nM.

In general, IC50 refers to the concentration at which inhibition is half-maximal.

The record behind these values is patent US10640498B2, “Compounds” (MISSION THERAPEUTICS LIMITED, priority 2016, dated 2020).
